How the values were obtained:
Test in all cases: Phenol Red Dextrose broth growth test of product containing CPC
Format in all cases: cell-based
Conditions in all cases: 37° C., 24 hours
Strep equi = test system: Strep equi
Procedure: (§1) Phenol Red Dextrose broth tubes were prepared and a small loop of an organism cultured in peptone broth for 24 hours at 37° C. was used to inoculate the tubes in duplicate to a series of ten. […] The inoculated tubes were incubated at a temperature of 37° C. for 24 hours and growth of organism assessed compared to an inoculated tube without presence of product.

Staph aureus (non MRSA) = test system: Staph aureus (non MRSA)
Procedure: as §1

Candida albicans = test system: Candida albicans
Procedure: as §1

Proteus vulgaris = test system: Proteus vulgaris
Procedure: as §1

P. aeruginosa = test system: P. aeruginosa
Procedure: as §1

Strep pyogenes = test system: Strep pyogenes
Procedure: as §1

Staph aureus (MRSA) = test system: Staph aureus (MRSA)
Procedure: as §1

Measured: growth of organism

CCCCCCCCCCCCCCCC[n+]1ccccc1 [CPC, cetyl pyridinium chloride]
n/g: Strep equi; 0.1 mL CPC (0.004% vol. comp) | Strep equi; 0.2 mL CPC (0.008% vol. comp) | Strep equi; 0.3 mL CPC (0.016% vol. comp) | Strep equi; 0.4 mL CPC (0.032% vol. comp) | Strep equi; 0.5 mL CPC (0.064% vol. comp) | Strep equi; 0.6 mL CPC (0.128% vol. comp) | Strep equi; 0.7 mL CPC (0.256% vol. comp) | Strep equi; 0.8 mL CPC (0.512% vol. comp) | Strep equi; 0.9 mL CPC (1.024% vol. comp) | Strep equi; 1.0 mL CPC (2.048% vol. comp) | Staph aureus (non MRSA); 0.1 mL CPC (0.004% vol. comp) | Staph aureus (non MRSA); 0.2 mL CPC (0.008% vol. comp) | Staph aureus (non MRSA); 0.3 mL CPC (0.016% vol. comp) | Staph aureus (non MRSA); 0.4 mL CPC (0.032% vol. comp) | Staph aureus (non MRSA); 0.5 mL CPC (0.064% vol. comp) | Staph aureus (non MRSA); 0.6 mL CPC (0.128% vol. comp) | Staph aureus (non MRSA); 0.7 mL CPC (0.256% vol. comp) | Staph aureus (non MRSA); 0.8 mL CPC (0.512% vol. comp) | Staph aureus (non MRSA); 0.9 mL CPC (1.024% vol. comp) | Staph aureus (non MRSA); 1.0 mL CPC (2.048% vol. comp) | Candida albicans; 0.1 mL CPC (0.004% vol. comp) | Candida albicans; 0.2 mL CPC (0.008% vol. comp) | Candida albicans; 0.3 mL CPC (0.016% vol. comp) | Candida albicans; 0.4 mL CPC (0.032% vol. comp) | Candida albicans; 0.5 mL CPC (0.064% vol. comp) | Candida albicans; 0.6 mL CPC (0.128% vol. comp) | Candida albicans; 0.7 mL CPC (0.256% vol. comp) | Candida albicans; 0.8 mL CPC (0.512% vol. comp) | Candida albicans; 0.9 mL CPC (1.024% vol. comp) | Candida albicans; 1.0 mL CPC (2.048% vol. comp) | Proteus vulgaris; 0.1 mL CPC (0.004% vol. comp) | Proteus vulgaris; 0.2 mL CPC (0.008% vol. comp) | Proteus vulgaris; 0.3 mL CPC (0.016% vol. comp) | Proteus vulgaris; 0.4 mL CPC (0.032% vol. comp) | Proteus vulgaris; 0.5 mL CPC (0.064% vol. comp) | Proteus vulgaris; 0.6 mL CPC (0.128% vol. comp) | Proteus vulgaris; 0.7 mL CPC (0.256% vol. comp) | Proteus vulgaris; 0.8 mL CPC (0.512% vol. comp) | Proteus vulgaris; 0.9 mL CPC (1.024% vol. comp) | Proteus vulgaris; 1.0 mL CPC (2.048% vol. comp) | P. aeruginosa; 0.1 mL CPC (0.004% vol. comp) | P. aeruginosa; 0.2 mL CPC (0.008% vol. comp) | P. aeruginosa; 0.3 mL CPC (0.016% vol. comp) | P. aeruginosa; 0.4 mL CPC (0.032% vol. comp) | P. aeruginosa; 0.5 mL CPC (0.064% vol. comp) | P. aeruginosa; 0.6 mL CPC (0.128% vol. comp) | P. aeruginosa; 0.7 mL CPC (0.256% vol. comp) | P. aeruginosa; 0.8 mL CPC (0.512% vol. comp) | P. aeruginosa; 0.9 mL CPC (1.024% vol. comp) | P. aeruginosa; 1.0 mL CPC (2.048% vol. comp) | Strep pyogenes; 0.1 mL CPC (0.004% vol. comp) | Strep pyogenes; 0.2 mL CPC (0.008% vol. comp) | Strep pyogenes; 0.3 mL CPC (0.016% vol. comp) | Strep pyogenes; 0.4 mL CPC (0.032% vol. comp) | Strep pyogenes; 0.5 mL CPC (0.064% vol. comp) | Strep pyogenes; 0.6 mL CPC (0.128% vol. comp) | Strep pyogenes; 0.7 mL CPC (0.256% vol. comp) | Strep pyogenes; 0.8 mL CPC (0.512% vol. comp) | Strep pyogenes; 0.9 mL CPC (1.024% vol. comp) | Strep pyogenes; 1.0 mL CPC (2.048% vol. comp) | Staph aureus (MRSA); 0.1 mL CPC (0.004% vol. comp) | Staph aureus (MRSA); 0.2 mL CPC (0.008% vol. comp) | Staph aureus (MRSA); 0.3 mL CPC (0.016% vol. comp) | Staph aureus (MRSA); 0.4 mL CPC (0.032% vol. comp) | Staph aureus (MRSA); 0.5 mL CPC (0.064% vol. comp) | Staph aureus (MRSA); 0.6 mL CPC (0.128% vol. comp) | Staph aureus (MRSA); 0.7 mL CPC (0.256% vol. comp) | Staph aureus (MRSA); 0.8 mL CPC (0.512% vol. comp) | Staph aureus (MRSA); 0.9 mL CPC (1.024% vol. comp) | Staph aureus (MRSA); 1.0 mL CPC (2.048% vol. comp)
